Assay results reported in US20260159486A1, “BENZO[H]QUINAZOLINE-4-AMINE DERIVATIVES FOR THE TREATMENT OF CANCER” (Redona Therapeutics, Inc., priority 2021, published 2026).

Columns and labels:
recombinant human CLK3 = molecular target: T1, recombinant human CLK3 (Homo sapiens, UniProt P49761); experiment: CLK3 kinase assay (LANCE Ultra); format: biochemical; settings: CLK3 0.5 nM, ATP 300 μM, 3 hours at 30° C.
T1 construct: purchased Thermo Fisher Scientific PV3826
Outline: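 Recombinant human CLK3 (0.5 nM) with ULight-CREBtide (50 nM) and 300 μM ATP, 3 h at 30 °C in kinase buffer; EDTA stop, then Eu-anti-phospho-CREB antibody (2 nM, 1 h RT), TR-FRET read at 665/620 nm. Inhibition normalized to DMSO and no-ATP wells; IC50 from 4-parameter fit, ten 1:3 concentrations in duplicate.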

MDA-MB-231 cells = experiment: MDA-MB-231 proliferation assay; format: cell-based; settings: YO-PRO-1 Iodide readout
Outline: (§1)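 Cells seeded at 750 per well, treated next day for 72 h at 37 °C with 0.5% final DMSO. Cell number read by YO-PRO-1 fluorescence after lysis, normalized to DMSO (100%) and time-zero cells (0%). GI50 from 4-parameter logistic fit, maximum constrained to 100%.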

CAL-51 cells = experiment: CAL-51 proliferation assay; format: cell-based; settings: YO-PRO-1 Iodide readout
Outline: as §1

T1 sequence (P49761 whole entry): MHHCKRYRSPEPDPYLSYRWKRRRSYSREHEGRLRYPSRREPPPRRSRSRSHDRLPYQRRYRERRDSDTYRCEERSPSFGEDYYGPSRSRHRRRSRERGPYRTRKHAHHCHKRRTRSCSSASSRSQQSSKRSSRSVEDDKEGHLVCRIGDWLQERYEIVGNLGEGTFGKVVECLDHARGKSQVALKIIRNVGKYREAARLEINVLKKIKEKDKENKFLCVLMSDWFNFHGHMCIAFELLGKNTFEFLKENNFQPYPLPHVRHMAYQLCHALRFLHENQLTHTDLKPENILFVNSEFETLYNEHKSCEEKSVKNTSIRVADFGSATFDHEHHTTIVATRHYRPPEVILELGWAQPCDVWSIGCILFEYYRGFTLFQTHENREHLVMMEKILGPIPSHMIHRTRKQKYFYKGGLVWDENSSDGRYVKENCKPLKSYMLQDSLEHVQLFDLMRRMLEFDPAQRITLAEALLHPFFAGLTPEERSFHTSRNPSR

| Structure (SMILES) | IC50 (recombinant human CLK3) [nM] | GI50 (MDA-MB-231 cells; Homo sapiens, MDA-MB-231, 72 h) [nM] | GI50 (CAL-51 cells; Homo sapiens, CAL-51, 72 h) [nM] | GI50 (MDA-MB-231 cells; 72 hours) [nM] | GI50 (CAL-51 cells; 72 hours) [nM] |
| --- | --- | --- | --- | --- | --- |
| Nc1ncnc2c1C1(CCCC1)Cc1c-2ccc(O[C@H]2CC[C@@H](N)CC2)c1NCC(=O)O [Example 79, 2-[[4-amino-8-(cis-4-aminocyclohexoxy)spiro[6H-benzo[h]quinazoline-5,1′-cyclopentane]-7-yl]amino]acetic acid] | 30 to 100 | > 2000 | > 2000 |  |  |
| CCN(C)c1c(O[C@H]2CC[C@H](N)CC2)ccc2c1CC(C)(C)c1c(N)ncnc1-2 [Example 67, 8-(trans-4-aminocyclohexoxy)-N7-ethyl-N7,5,5-trimethyl-6H-benzo[h]quinazoline-4,7-diamine] | < 30 | < 100 | < 100 |  |  |
| CN(CC1CCOCC1)c1c(O[C@H]2CC[C@@H](N)CC2)ccc2c1CC(C)(C)c1c(N)ncnc1-2 [Example 29, 8-(cis-4-aminocyclohexoxy)-N7,5,5-trimethyl-N7-(tetrahydropyran-4-ylmethyl)-6H-benzo[h]quinazoline-4,7-diamine] | 101 to 1000 | 100 to 2000 | 100 to 2000 |  |  |
| CN(c1c(O[C@H]2CC[C@H](N)CC2)ccc2c1CC(C)(C)c1c(N)ncnc1-2)S(=O)(=O)CCC#N [Example 74, N-[4-amino-8-(trans-4-aminocyclohexoxy)-5,5-dimethyl-6H-benzo[h]quinazolin-7-yl]-2-cyano-N-methyl-ethanesulfonamide] | < 30 | 100 to 2000 | < 100 |  |  |
| CN(CCC(C)(C)O)c1c(O[C@H]2CC[C@H](N)CC2)ccc2c1CC(C)(C)c1c(N)ncnc1-2 [Example 111, 4-[[4-amino-8-(trans-4-aminocyclohexoxy)-5,5-dimethyl-6H-benzo[h]quinazolin-7-yl]-methyl-amino]-2-methyl-butan-2-ol] | 101 to 1000 | 100 to 2000 | 100 to 2000 |  |  |
| CC1(C)Cc2c(ccc(Br)c2N2CCC(C#N)C2)-c2ncnc(N)c21 (stereo not drawn) [Example 120, 1-(4-amino-8-bromo-5,5-dimethyl-6H-benzo[h]quinazolin-7-yl)pyrrolidine-3-carbonitrile] | 101 to 1000 | 100 to 2000 | 100 to 2000 |  |  |
| CCCCN(C)c1c(O[C@H]2CC[C@H](N)CC2)ccc2c1CC(C)(C)c1c(N)ncnc1-2 [Example 100, 8-(trans-4-aminocyclohexoxy)-N7-butyl-N7,5,5-trimethyl-6H-benzo[h]quinazoline-4,7-diamine] | 101 to 1000 | 100 to 2000 | 100 to 2000 |  |  |
| CN(Cc1cccnc1)c1c(O[C@H]2CC[C@H](N)CC2)ccc2c1CC(C)(C)c1c(N)ncnc1-2 [Example 107, 8-(trans-4-aminocyclohexoxy)-N7,5,5-trimethyl-N7-(3-pyridylmethyl)-6H-benzo[h]quinazoline-4,7-diamine] | 101 to 1000 | 100 to 2000 | 100 to 2000 |  |  |
| CCN(CCO)c1c(O[C@H]2CC[C@@H](N)CC2)ccc2c1CC(C)(C)c1c(N)ncnc1-2 [Example 22, 2-[[4-amino-8-(4-cis-aminocyclohexoxy)-5,5-dimethyl-6H-benzo[h]quinazolin-7-yl]-ethyl-amino]ethanol] | < 30 | 100 to 2000 | < 100 |  |  |
| CN(Cc1c[nH]cn1)c1c(O[C@H]2CC[C@H](N)CC2)ccc2c1CC(C)(C)c1c(N)ncnc1-2 [Example 103, 8-(trans-4-aminocyclohexoxy)-N7-(1H-imidazol-4-ylmethyl)-N7,5,5-trimethyl-6H-benzo[h]quinazoline-4,7-diamine] | 30 to 100 | 100 to 2000 | 100 to 2000 |  |  |
| CN(C[C@@H]1CNC(=O)O1)c1c(Br)ccc2c1CC(C)(C)c1c(N)ncnc1-2 [Example 126, (5S)-5-[[(4-amino-8-bromo-5,5-dimethyl-6H-benzo[h]quinazolin-7-yl)-methyl-amino]methyl]oxazolidin-2-one] | 30 to 100 | 100 to 2000 | 100 to 2000 |  |  |
| CC1(C)Cc2c(ccc(O[C@H]3CC[C@H](N)CC3)c2NC[C@@H]2CNC(=O)O2)-c2ncnc(N)c21 [Example 129, (5R)-5-[[[4-amino-8-(trans-4-aminocyclohexoxy)-5,5-dimethyl-6H-benzo[h]quinazolin-7-yl]amino]methyl]oxazolidin-2-one] | < 30 | > 2000 | > 2000 |  |  |
| Nc1ncnc2c1C1(CCCC1)Cc1c-2ccc(O[C@H]2CC[C@@H](N)CC2)c1NCCO [Example 70, 2-[[4-amino-8-(cis-4-aminocyclohexoxy)spiro[6H-benzo[h]quinazoline-5,1′-cyclopentane]-7-yl]amino]ethanol] | < 30 | 100 to 2000 | 100 to 2000 |  |  |
| CC1(C)Cc2c(ccc(O[C@H]3CC[C@H](N)CC3)c2CCCC#N)-c2ncnc(N)c21 [Example 81, 4-[4-amino-8-(trans-4-aminocyclohexoxy)-5,5-dimethyl-6H-benzo[h]quinazolin-7-yl]butanenitrile] | < 30 | 100 to 2000 | < 100 |  |  |
| CC1(C)Cc2c(ccc(O[C@H]3CC[C@H](N)CC3)c2N2CCC(C(N)=O)C2)-c2ncnc(N)c21 (stereo partly drawn) [Example 77, 1-[4-amino-8-(trans-4-aminocyclohexoxy)-5,5-dimethyl-6H-benzo[h]quinazolin-7-yl]pyrrolidine-3-carboxamide] | < 30 | > 2000 | 100 to 2000 |  |  |
| CN(CCC#N)c1c(OC2CCCNCC2)ccc2c1CC(C)(C)c1c(N)ncnc1-2 (stereo not drawn) [Example 78, 3-[[4-amino-8-(azepan-4-yloxy)-5,5-dimethyl-6H-benzo[h]quinazolin-7-yl]-methyl-amino]propanenitrile] | < 30 | < 100 | < 100 |  |  |
| CN(CCC#N)c1c(O[C@H]2CC[C@H](N(C)C)CC2)ccc2c1CC(C)(C)c1c(N)ncnc1-2 [Example 96] | < 30 | < 100 | < 100 |  |  |
| COC1CCN(c2c(O[C@H]3CC[C@H](N)CC3)ccc3c2CC(C)(C)c2c(N)ncnc2-3)C1 (single isomer, unassigned) [Example 73, 8-(trans-4-aminocyclohexoxy)-7-(3-methoxypyrrolidin-1-yl)-5,5-dimethyl-6H-benzo[h]quinazolin-4-amine] | 30 to 100 |  |  | < 100 | < 100 |
| COc1ccn(-c2c(O[C@H]3CC[C@H](N)CC3)ccc3c2CC(C)(C)c2c(N)ncnc2-3)c1 [Example 57, 8-(trans-4-aminocyclohexoxy)-7-(3-methoxypyrrol-1-yl)-5,5-dimethyl-6H-benzo[h]quinazolin-4-amine] | 30 to 100 | 100 to 2000 | < 100 |  |  |
| COCCNc1c(O[C@H]2CC[C@H](N)CC2)ccc2c1CC1(CCCC1)c1c(N)ncnc1-2 [Example 62, 8-(trans-4-aminocyclohexoxy)-N7-(2-methoxyethyl)spiro[6H-benzo[h]quinazoline-5,1′-cyclopentane]-4,7-diamine] | 101 to 1000 | 100 to 2000 | 100 to 2000 |  |  |
| CC1(C)Cc2c(ccc(O[C@H]3CC[C@H](N)CC3)c2NS(=O)(=O)CCO)-c2ncnc(N)c21 [Example 42, N-[4-amino-8-(trans-4-aminocyclohexoxy)-5,5-dimethyl-6H-benzo[h]quinazolin-7-yl]-2-hydroxy-ethanesulfonamide] | 30 to 100 | > 2000 | > 2000 |  |  |
| COc1ccc2c(c1NC[C@@H]1CNC(=O)O1)CC(C)(C)c1c(N)ncnc1-2 [Example 82, (5R)-5-[[(4-amino-8-methoxy-5,5-dimethyl-6H-benzo[h]quinazolin-7-yl)amino]methyl]oxazolidin-2-one] | < 30 | 100 to 2000 | < 100 |  |  |
| CN[C@H]1CC[C@H](Oc2ccc3c(c2N(C)CCC#N)CC(C)(C)c2c(N)ncnc2-3)CC1 [Example 99, 3-[[4-amino-5,5-dimethyl-8-[trans-4-(methylamino)cyclohexoxy]-6H-benzo[h]quinazolin-7-yl]-methyl-amino]propanenitrile] | < 30 | < 100 | < 100 |  |  |
| CNc1c(O[C@H]2CC[C@H](N)CC2)ccc2c1CC(C)(C)c1c(N)ncnc1-2 [Example 68, 8-(trans-4-aminocyclohexoxy)-N7,5,5-trimethyl-6H-benzo[h]quinazoline-4,7-diamine] | 30 to 100 | 100 to 2000 | < 100 |  |  |
| COc1ccc2c(c1NCC(O)CO)CC(C)(C)c1c(N)ncnc1-2 (stereo not drawn) [Example 27, 3-[(4-amino-8-methoxy-5,5-dimethyl-6H-benzo[h]quinazolin-7-yl)amino]propane-1,2-diol] | 30 to 100 | 100 to 2000 | 100 to 2000 |  |  |
